Assay results published in patent US20240294517A1, “2-[3-[1 [(QUINAZOLIN-4-YL)AMINO]ETHYL]PYRAZIN-2-YL]THIAZOLE-5-CARBONITRILE DERIVATIVES AND SIMILAR COMPOUNDS AS PESTICIDES” (SYNGENTA CROP PROTECTION AG, priority 2021, published 2024).

Legend:
Myzus persicae [1] = assay: Activity against Myzus persicae (green peach aphid), intrinsic activity; format: in vivo; settings: 120 h, test rate 12 ppm, 5 days after infestation
Method: Test compounds prepared from 10′000 ppm DMSO stock solutions were applied by pipette into 24-well microtiter plates and mixed with sucrose solution. The plates were closed with a stretched Parafilm. A plastic stencil with 24 holes was placed onto the plate and infested pea seedlings were placed directly on the Parafilm. The infested plate was closed with a gel blotting paper and another plastic stencil and then turned upside down. The samples were assessed for mortality 5 days after infestation.

Diabrotica balteata = assay: Activity against Diabrotica balteata (corn root worm), sprayed maize sprouts; format: in vivo; settings: 96 h, application rate 200 ppm, L2 larvae, 4 days after infestation, read-out: effect in at least one of the two categories (mortality or growth inhibition)
Method: Maize sprouts placed onto an agar layer in 24-well microtiter plates were treated with aqueous test solutions prepared from 10′000 ppm DMSO stock solutions by spraying. After drying, the plates were infested with L2 larvae (6 to 10 per well). The samples were assessed for mortality and growth inhibition in comparison to untreated samples 4 days after infestation.
(§1) Activity of compound P5 according to the preparatory examples and of compound P.118 from WO 21/083936 against Plutella xylostella ([…]) and Diabrotica balteata (Example B2) is summarized in Table B9.

Spodoptera littoralis = assay: Activity against Spodoptera littoralis (Egyptian cotton leaf worm), sprayed cotton leaf discs; format: in vivo; settings: foliar, 72 h, application rate 200 ppm, L1 larvae, 3 days after infestation
Method: Cotton leaf discs were placed onto agar in 24-well microtiter plates and sprayed with aqueous test solutions prepared from 10′000 ppm DMSO stock solutions. After drying the leaf discs were infested with five L1 larvae. The samples were assessed for mortality, anti-feeding effect, and growth inhibition in comparison to untreated samples 3 days after infestation. Control of Spodoptera littoralis by a test sample is given when at least one of the categories mortality, anti-feedant effect, and growth inhibition is higher than the untreated sample.

Chilo suppressalis = assay: Activity against Chilo suppressalis (striped rice stemborer), artificial diet in 24-well plates; format: in vivo; settings: 144 h, application rate 200 ppm, L2 larvae, 6 days after infestation
Method: 24-well microtiter plates with artificial diet were treated with aqueous test solutions prepared from 10′000 ppm DMSO stock solutions by pipetting. After drying, the plates were infested with L2 larvae (6-8 per well). The samples were assessed for mortality, anti-feeding effect, and growth inhibition in comparison to untreated samples 6 days after infestation. Control of Chilo suppressalis by a test sample is given when at least one of the categories mortality, anti-feedant effect, and growth inhibition is higher than the untreated sample.

Plutella xylostella = assay: Activity against Plutella xylostella (diamond back moth), artificial diet; format: in vivo; settings: 192 h, application rate 200 ppm, eggs, 8 days after infestation, read-out: effect in at least one of the two categories (mortality or growth inhibition)
Method: 24-well microtiter plates with artificial diet were treated with aqueous test solutions prepared from 10′000 ppm DMSO stock solutions by pipetting. After drying, Plutella eggs were pipetted through a plastic stencil onto a gel blotting paper and the plate was closed with it. The samples were assessed for mortality and growth inhibition in comparison to untreated samples 8 days after infestation.
as §1

Euschistus heros = assay: Activity against Euschistus heros (neotropical brown stink bug), sprayed soybean leaves; format: in vivo; settings: 120 h, application rate 200 ppm, N2 nymphs, 5 days after infestation, read-out: effect in at least one of the two categories (mortality or growth inhibition)
Method: Soybean leaves on agar in 24-well microtiter plates were sprayed with aqueous test solutions prepared from 10′000 ppm DMSO stock solutions. After drying the leaves were infested with N2 nymphs. The samples were assessed for mortality and growth inhibition in comparison to untreated samples 5 days after infestation.

Myzus persicae [2] = assay: Activity against Myzus persicae (green peach aphid), feeding/contact activity; format: in vivo; settings: 144 h, application rate 200 ppm, mixed ages, 6 days after infestation
Method: Sunflower leaf discs were placed onto agar in a 24-well microtiter plate and sprayed with aqueous test solutions prepared from 10′000 ppm DMSO stock solutions. After drying, the leaf discs were infested with an aphid population of mixed ages. The samples were assessed for mortality 6 days after infestation.

[3] = tested on: Frankliniella occidentalis; assay: Activity against Frankliniella occidentalis (western flower thrips), sprayed sunflower leaf discs; format: in vivo; settings: foliar, 168 h, application rate 200 ppm, mixed ages, 7 days after infestation
Method: Sunflower leaf discs were placed on agar in 24-well microtiter plates and sprayed with aqueous test solutions prepared from […] stock solutions. After drying the leaf discs were infested with a Frankliniella population of mixed ages. The samples were assessed for mortality 7 days after infestation.

Row | SMILES | melting point [°C] | mortality at 12 ppm (Myzus persicae [1]) [%] | percent effect (mortality or growth inhibition) at 200 ppm (Diabrotica balteata) [%] | percent control (mortality, anti-feedant effect or growth inhibition) at 200 ppm (Spodoptera littoralis) [%] | percent control (mortality, anti-feedant effect or growth inhibition) at 200 ppm (Chilo suppressalis) [%] | percent effect (mortality or growth inhibition) at 200 ppm (Plutella xylostella) [%] | percent effect (mortality or growth inhibition) at 200 ppm (Euschistus heros) [%] | mortality at 200 ppm (Myzus persicae [2]) [%] | mortality at 200 ppm [3] [%]
1 | CC(Nc1nc(Cl)nc2c(Br)cc(C(F)(F)F)cc12)c1nccnc1-c1ncc(Br)s1 (stereo not drawn) [P3, 8-bromo-N-[1-[3-(5-bromothiazol-2-yl)pyrazin-2-yl]ethyl]-2-chloro-6-(trifluoromethyl)quinazolin-4-amine] | 197 to 199 |  |  |  |  |  |  |  | 
2 | C[C@H](Nc1ncnc2c(Cl)cc(C(F)(F)F)cc12)c1ncnn1-c1ncc(C#N)s1 [P15, 2-[5-[(1S)-1-[[8-chloro-6-(trifluoromethyl)quinazolin-4-yl]amino]ethyl]-1,2,4-triazol-1-yl]thiazole-5-carbonitrile] |  | ≥ 80 | ≥ 80 | ≥ 80 | ≥ 80 | ≥ 80 |  |  | 
3 | C[C@@H](c1ncnn1-c1ncc(C#N)s1)N(C)c1ncnc2c(Cl)cc(C(F)(F)F)cc12 [P17, 2-[5-[(1S)-1-[[8-chloro-6-(trifluoromethyl)quinazolin-4-yl]-methyl-amino]ethyl]-1,2,4-triazol-1-yl]thiazole-5-carbonitrile] |  |  | ≥ 80 | ≥ 80 | ≥ 80 | ≥ 80 | ≥ 80 |  | 
4 | C[C@H](Nc1ncnc2c(Br)cc(Br)cc12)c1ncnn1-c1ncc(C#N)s1 [P14, 2-[5-[(1S)-1-[(6,8-dibromoquinazolin-4-yl)amino]ethyl]-1,2,4-triazol-1-yl]thiazole-5-carbonitrile] |  |  | ≥ 80 | ≥ 80 | ≥ 80 | ≥ 80 |  | ≥ 80 | 
5 | C[C@H](Nc1ncnc2c(Cl)cc(I)cc12)c1ncnn1-c1ncc(C#N)s1 [P20, 2-[5-[(1S)-1-[(8-chloro-6-iodo-quinazolin-4-yl)amino]ethyl]-1,2,4-triazol-1-yl]thiazole-5-carbonitrile] |  |  | ≥ 80 | ≥ 80 | ≥ 80 | ≥ 80 |  |  | ≥ 80
